Legend:
Type in all cases: in vivo
[1] = system: deadnettle (Lamium amplexicaule); assay: Test D; conditions: PREEMERGENCE
[2] = system: sandbur (Cenchrus echinatus); assay: Test E pre-/postemergence/post directed; set-up: key: 0 is no injury; 100 is complete control; conditions: PREEMERGENCE, Rate 32 g/ha
Procedure, shortened: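 Three application modes in greenhouse pots: preemergence soil spray, postemergence foliar spray at two to four leaves, and post-directed spray to soil and plant base. Ratings of 0–100 injury, assigned visually against untreated controls 13 to 21 days later.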

wild oat (Avena fatua) = assay: Test D; conditions: PREEMERGENCE
[3] = system: sunflower (Helianthus annuus); assay: Test D; set-up: key: 0 is no effect; 100 is complete control; conditions: PREEMERGENCE
[4] = system: green foxtail (Setaria viridis); assay: Test D; set-up: key: 0 is no effect; 100 is complete control; conditions: PREEMERGENCE
[5] = system: winter wheat (Triticum aestivum); assay: Test D; conditions: PREEMERGENCE
[6] = system: blackgrass (Alopecurus myosuroides); assay: Test D; conditions: PREEMERGENCE
rape (Brassica napus) = assay: Test D; set-up: key: 0 is no effect; 100 is complete control; conditions: PREEMERGENCE
[7] = system: littleseed canarygrass (Phalaris minor); assay: Test D; conditions: PREEMERGENCE
[8] = system: downy brome (Bromus tectorum); assay: Test D; conditions: PREEMERGENCE
[9] = system: galium 2 (Galium aparine); assay: Test D; conditions: POSTEMERGENCE
Experimental: (§1) Compounds evaluated in this test were formulated in a non-phytotoxic solvent mixture which included a surfactant and applied to plants that were in the 1- to 4-leaf stage (postemergence application). A mixture of sandy loam soil and greenhouse potting mix in a 60:40 ratio was used for the postemergence test.
(§2) Plantings of these crops and weed species were adjusted to produce plants of appropriate size for the postemergence test. All plant species were grown using normal greenhouse practices. Crop and weed species include alfalfa (Medicago sativa), annual bluegrass (Poa annua), blackgrass (Alopecurus myosuroides), black nightshade (Solanum nigra), chickweed (Stellaria media), common poppy (Papaver rhoeas), deadnettle (Lamium amplexicaule), downy brome (Bromus tectorum), field violet (Viola arvensis), galium 2 (Galium aparine), green foxtail (Setaria viridis), Italian ryegrass (Lolium multiflorum), jointed goatgrass (Aegilops cylindrica), kochia (Kochia scoparia), lambsquarters (Chenopodium album), lentil (Lens culinaris), littleseed canarygrass (Phalaris minor), pea (Pisum sativum), potato (Solanum tuberosum), rape (Brassica napus), redroot pigweed (Amaranthus retroflexus), Russian thistle (Salsola kali), scentless chamomile (Matricaria inodora), sorghum (Sorghum vulgare), spring barley (Hordeum vulgare), sugar beet (Beta vulgaris), sunflower (Helianthus annuus), ivyleaf speedwell (Veronica hederaefolia), spring wheat (Triticum aestivum), winter wheat (Triticum aestivum), wild buckwheat (Polygonum convolvulus), wild mustard (Sinapis arvensis), wild oat (Avena fatua), windgrass (Apera spica-venti) and winter barley (Hordeum vulgare).
(§3) Treated plants and untreated controls were maintained in a greenhouse for approximately 21 to 28 days, after which all treated plants were compared to untreated controls and visually evaluated. Plant response ratings, summarized in Table D, are based upon a 0 to 100 scale where 0 is no effect and 100 is complete control. A dash response (−) means no test result.

kochia (Kochia scoparia) = assay: Test D; conditions: POSTEMERGENCE
Experimental: as §1, §2, §3

[10] = system: redroot pigweed (Amaranthus retroflexus); assay: Test D; conditions: POSTEMERGENCE
Experimental: as §1, §2, §3

[11] = system: wild buckwheat (Polygonum convolvulus); assay: Test D; conditions: POSTEMERGENCE
Experimental: as §1, §2, §3

[12] = system: redroot pigweed (Amaranthus retroflexus); assay: Test D; set-up: key: 0 is no effect; 100 is complete control; conditions: PREEMERGENCE
[13] = system: wild mustard (Sinapis arvensis); assay: Test D; set-up: key: 0 is no effect; 100 is complete control; conditions: PREEMERGENCE

Q: `Cc1cnc(-n2ccc(C(F)(F)F)n2)nc1Cn1ccc(C(F)(F)F)n1` [Compound 52] was tested. Which “Plant response rating, Deadnettle” value ([1]; Rate 31 g/ha) did it give?
A: 50

Q: And the “Plant response rating, Deadnettle” value ([1]; Rate 62 g/ha)?
A: 70

Q: And the “Plant response rating, Deadnettle” value ([1]; Rate 125 g/ha)?
A: 90

Q: And the “Plant response rating, Sandbur” value [2]?
A: 0

Q: What about the “Plant response rating, Wild oat” value (wild oat (Avena fatua); Rate 31 g/ha) of the same compound?
A: 40

Q: And the “Plant response rating, Wild oat” value (wild oat (Avena fatua); Rate 62 g/ha)?
A: 50

Q: What about the “Plant response rating, Wild oat” value (wild oat (Avena fatua); Rate 125 g/ha) of the same compound?
A: 60

Q: What about the “Plant response rating, Sunflower” value ([3]; Rate 31 g/ha) of the same compound?
A: 0

Q: What about the “Plant response rating, Sunflower” value ([3]; Rate 62 g/ha) of the same compound?
A: 0

Q: And the “Plant response rating, Sunflower” value ([3]; Rate 125 g/ha)?
A: 0

Q: What about the “Plant response rating, Green foxtail” value ([4]; Rate 31 g/ha) of the same compound?
A: 50

Q: And the “Plant response rating, Green foxtail” value ([4]; Rate 62 g/ha)?
A: 80

Q: What about the “Plant response rating, Green foxtail” value ([4]; Rate 125 g/ha) of the same compound?
A: 100

Q: And the “Plant response rating, Wheat (winter)” value ([5]; Rate 31 g/ha)?
A: 50

Q: And the “Plant response rating, Wheat (winter)” value ([5]; Rate 62 g/ha)?
A: 60

Q: And the “Plant response rating, Wheat (winter)” value ([5]; Rate 125 g/ha)?
A: 60

Q: What about the “Plant response rating, Blackgrass” value ([6]; Rate 31 g/ha) of the same compound?
A: 50

Q: And the “Plant response rating, Blackgrass” value ([6]; Rate 62 g/ha)?
A: 80

Q: What about the “Plant response rating, Blackgrass” value ([6]; Rate 125 g/ha) of the same compound?
A: 90

Q: What about the “Plant response rating, Rape” value (rape (Brassica napus); Rate 31 g/ha) of the same compound?
A: 50

Q: What about the “Plant response rating, Rape” value (rape (Brassica napus); Rate 62 g/ha) of the same compound?
A: 60

Q: What about the “Plant response rating, Rape” value (rape (Brassica napus); Rate 125 g/ha) of the same compound?
A: 100

Q: And the “Plant response rating, LS canarygrass” value ([7]; Rate 31 g/ha)?
A: 30

Q: And the “Plant response rating, LS canarygrass” value ([7]; Rate 62 g/ha)?
A: 60

Q: What about the “Plant response rating, LS canarygrass” value ([7]; Rate 125 g/ha) of the same compound?
A: 90

Q: What about the “Plant response rating, Downy brome” value ([8]; Rate 31 g/ha) of the same compound?
A: 30

Q: What about the “Plant response rating, Downy brome” value ([8]; Rate 62 g/ha) of the same compound?
A: 40

Q: What about the “Plant response rating, Downy brome” value ([8]; Rate 125 g/ha) of the same compound?
A: 50

Q: And the “Plant response rating, Galium” value ([9]; Rate 16 g/ha)?
A: 40

Q: What about the “Plant response rating, Galium” value ([9]; Rate 31 g/ha) of the same compound?
A: 50

Q: And the “Plant response rating, Galium” value ([9]; Rate 62 g/ha)?
A: 65

Q: What about the “Plant response rating, Galium” value ([9]; Rate 125 g/ha) of the same compound?
A: 60

Q: What about the “Plant response rating, Kochia” value (kochia (Kochia scoparia); Rate 16 g/ha) of the same compound?
A: 70

Q: And the “Plant response rating, Kochia” value (kochia (Kochia scoparia); Rate 31 g/ha)?
A: 70

Q: And the “Plant response rating, Kochia” value (kochia (Kochia scoparia); Rate 62 g/ha)?
A: 70

Q: What about the “Plant response rating, Kochia” value (kochia (Kochia scoparia); Rate 125 g/ha) of the same compound?
A: 70

Q: And the “Plant response rating, Redroot pigweed” value ([10]; Rate 16 g/ha)?
A: 45

Q: And the “Plant response rating, Redroot pigweed” value ([10]; Rate 31 g/ha)?
A: 60

Q: What about the “Plant response rating, Redroot pigweed” value ([10]; Rate 62 g/ha) of the same compound?
A: 60

Q: And the “Plant response rating, Redroot pigweed” value ([10]; Rate 125 g/ha)?
A: 70

Q: And the “Plant response rating, Wild buckwheat” value ([11]; Rate 16 g/ha)?
A: 60

Q: What about the “Plant response rating, Wild buckwheat” value ([11]; Rate 31 g/ha) of the same compound?
A: 50

Q: What about the “Plant response rating, Wild buckwheat” value ([11]; Rate 62 g/ha) of the same compound?
A: 70

Q: What about the “Plant response rating, Wild buckwheat” value ([11]; Rate 125 g/ha) of the same compound?
A: 80

Q: What about the “Plant response rating, Redroot pigweed” value ([12]; Rate 31 g/ha) of the same compound?
A: 90

Q: And the “Plant response rating, Redroot pigweed” value ([12]; Rate 62 g/ha)?
A: 90

Q: What about the “Plant response rating, Redroot pigweed” value ([12]; Rate 125 g/ha) of the same compound?
A: 100

Q: What about the “Plant response rating, Wild mustard” value ([13]; Rate 31 g/ha) of the same compound?
A: 90

Q: What about the “Plant response rating, Wild mustard” value ([13]; Rate 62 g/ha) of the same compound?
A: 90

Q: And the “Plant response rating, Wild mustard” value ([13]; Rate 125 g/ha)?
A: 100
